# Reference: patent US8236761B2, “C-Met receptor regulation by angiotensin IV (AT4) receptor ligands” (Washington State University Research Foundation, priority 2006, dated 2012)
# Non-standard residues stand in square brackets, D forms with d. No end group written: not given here. Nle = CCCC[C@H](N)C(=O)O
# Experiments:
# [1] = tested on: c-Met receptor; assay: Cross-linking of 125I-COMPOUND 2 or 125I-HGF to HEK293 cell membranes with unlabeled competitor; assay type: binding, human; conditions: cross-linked, 1 nM competitor
# Protocol: (§1) FIG. 3C: ^125I-Norleual was bound to HEK membranes in the presence or absence of 1.5 nM HGF (n=8) or 1 μM Norleual (n=6). Total binding is reported as percent control (n=10), (*p<0.001). Error bars indicate±SD. […] Error bars indicate SD and data points were performed in duplicate.
# Briefly, COMPOUND 2 was iodinated with […] and bound and cross-linked to HEK cell membranes with or without 1 nM COMPOUND 2 or 1 nM hepatocyte growth factor. Following solubilization and separation of free label by molecular sieving, total radioactive counts were determined. The ability of the ligand COMPOUND 2 to compete with hepatocyte growth factor binding to the c-Met receptor was also tested using mouse liver plasma membranes and intact HEK293 cells. Briefly, mouse liver was homogenized and incubated with ^125I-HGF with various concentrations of HGF or COMPOUND 2. Membranes were pelleted and unbound label was removed by washing, and total radioactive counts were determined. Next, HEK293 cell membranes were cross-linked with ^125I-HGF with unlabeled HGF or COMPOUND 2.
# [2] = tested on: HEK293 cell membranes (c-Met system); assay: 125I-Norleual binding assay, HEK293 cell membranes; set-up: species or system human; conditions: 1.5 nM HGF or 1 μM Norleual
# Protocol: as §1
# ^125I-Norleual binding assay. HEK293 cells were grown to confluency in DMEM fortified with 10% FBS. Media was aspirated and cells were washed twice with ice-cold PBS. Cells were lysed with hypotonic buffer and homogenized as described by Zhang et al. (1999, J. Pharmacol. Exp. Ther. 289: 1075-1083; 2003 J. Cell Biochem. 88: 408-417). 450 μg of membrane protein was incubated with 1.5 nM ^125I-Norleual with or without Norleual or HGF in a total volume of 250 μl PBS, 0.1% BSA. Tubes were spun and binding was carried out for 60 minutes at RT. Bound and free ligands were separated by vacuum filtration using (Brandel Cell Harvester, Schleicher & Schull, Keene, N.H., USA) 32 glass filters. Radioactivity retained by the filters was measured using a gamma counter. […] Data analysis was preformed using Prism software (GraphicPad) per the supplier's recommendations.
# Materials and methods were as described in Example 1. In separate tests of unlabeled competitors, both Norleual and HGF competed with ^125I-HGF for high affinity binding to mouse liver plasma membranes (FIGS. 2A, 2B). […]
# [3] = molecular target: c-Met (Homo sapiens, UniProt P08581); assay: Immunoprecipitation/Western blot of HGF-dependent c-Met and Gab1 phosphorylation and association in HEK293 cells; assay type: cell-based; set-up: host or cells: HEK293; conditions: HEK293 cells, 10 minutes
# Protocol: (FIG. 5A) HEK293 cells were treated for 10 minutes with HGF at indicated concentrations. Lysates were immunoprecipitated (IP) with anti-c-Met antibody (DO-24) and immunoblotted (IB) with anti-c-Met or anti-phospho-tyrosine (06-427) antibody. (FIG. 5B) HEK293 cells were treated for 10 minutes with HGF and/or Norleual. Lysates were IP with anti-c-Met (DO-24) and IB with anti-c-Met (DQ-13) or anti-phospho-tyrosine (HAM 1676). (FIG. 5C) HEK293 lysates were IP with anti-c-Met (DO-24) and IB with anti-Gab1. (FIG. 5D) HEK 293 lysates were IP with anti-Gab1 and IB with anti-Gab1 or anti-phospho-tyrosine (HAM 1676). (FIGS. 5E, 5F, 5G) Relative amounts (normalized to % total c-Met in IP) of quantified IP/IB band intensities for control, 110 pM HGF-, 110 pM HGF and 20 pM Norleual-, and 20 pM Norleual-treated HEK293 cells for phospho-c-Met (FIG. 5E, n=4), phospho-Gab1 (FIG. 5F, n=4), and c-Met associated Gab1 (FIG. 5G, n=3). Error bars indicate ±SD.
# HEK293 cells were treated for 10 minutes with HGF and/or Norleual at the indicated concentrations. Lysates were IP with anti-c-Met (DO-24, Millipore/Upstate, Billerica, Mass.) and IB with anti-c-Met (DQ-13, Millipore/Upstate) or anti-phosphotyrosine (HAM1676, lot JLB03, R&D Systems, Inc., Minneapolis, Minn.).
# Immunoprecipitation and Western blotting. Cells were serum starved for two hours in DMEM before treatment. Cells were harvested using RIPA lysis buffer (Upstate Biotechnol. Inc., Lake Placid, N.Y.) with phosphatase inhibitor cocktails 1 and 2 (Sigma, St Louis, Mo., USA). Protein concentration was determined using the BCA assay (Pierce, Rockford, Ill., USA). Lysates were incubated with antibody overnight at 4° C. Immunoprecipitation controls received mouse non-specific Ig (Upstate). Proteins were captured with protein-A agarose (Upstate) and were washed with PBS. Proteins were resolved using SDS-PAGE electrophoresis (Criterion, BioRad, Hercules, Calif., USA), transferred to nitrocellulose, and incubated with appropriate antibodies. Proteins were visualized using the Supersignal West Pico Chemiluminescent Substrate system (Pierce). The film images were digitized and analyzed using TotalLab® software (AmershamPharmacia/GE HealthCare, Piscataway, N.J.).
# Whether the interaction of Norleual with the c-Met receptor had functional consequences regarding c-Met signaling was next investigated by determining whether Norleual could alter the phosphorylation status of cellular protein tyrosine phosphate (FIG. 4) and more specifically, of c-Met (i.e., c-Met activation), and also whether Norleual could modulate Gab1 association with c-Met. Human embryonic kidney HEK293 cells were activated by HGF in the presence or absence of Norleual. Solubilized membranes were immunoprecipitated (IP) with an anti-c-Met antibody and immunoblotted (IB) for total c-Met, anti-phospho-tyrosine to detect the activated form of c-Met, and anti-Gab1 to detect c-Met/Gab1 association. […] To confirm these findings, treated HEK293 lysates were precipitated with anti-Gab1 and blotted for total Gab1 and phospho-Gab1, its activated form. Again, Norleual inhibited HGF-induced Gab1 phosphorylation (FIGS. 5D, […]).
# [4] = tested on: neovascularization; assay: Disc angiogenesis assay (subcutaneous sponge disc); assay type: in vivo, Sprague Dawley rats; conditions: 50 μg per disc core, 14 days, rat
# Protocol: FIG. 19 depicts effects on angiogenesis of angiotensin-like factors in a rat in vivo disc angiogenesis assay. Vascularization was quantified by digital image analysis of fixed and stained discs recovered from animals 14 days after subcutaneous implantation of sponge discs containing the indicated compounds.
# Disc Angiogenesis Assay. […] A 2 mm core was removed from the center of each disc, saturated with 50 μg of Nle^1-AngIV (SEQ ID NO:41), Nle^1-Leu^3-Ψ(CH2NH2)^3-4-AngIV, Hexamide, or ethanol (control), air dried, then sealed using a fixative (Elvax, DuPont) to allow sustained delivery of the drug treatment into the disc and adjacent tissues. The cores were dried for 30 min, then reinserted into the sponge discs. Impermeable top and bottom covers were prepared by coating 10 mm diameter paper discs with a plexiglass coating, then glued to the top and bottom of the sponge discs, leaving only the rim of the disc available for centripetal cellular penetration. Just prior to implantation, the discs were soaked briefly in sterile saline.
# Thirty-two Sprague Dawley female rats (225-275 gr) were used to evaluate four compounds for angiogenic or anti-angiogenic properties using the disc angiogenesis assay. Animals were anesthetized using sodium pentobarbital (40 mg/kg IP). The dorsum was then shaved and aseptically prepped. Each animal received four discs. Animals receiving treated discs were implanted with 2 treated discs and 2 ethanol-soaked control discs. Thus, in a group of 4 animals there were 8 treatment discs, and 8 control discs. These control discs were used to determine whether the ligand had potential systemic effects. Another group of 4 animals received only ethanol-soaked control discs (spontaneous growth controls or SGC discs) for an n=16. However, one SGC was fragmented during processing leaving an n=15.
# Four 2 cm cutaneous incisions were made along the dorsum (left thoracic, right thoracolumbar, left thoracolumbar, and right lumbar), and subcutaneous pouches opened in the fascia using blunt dissection. Discs were moistened in sterile saline, inserted deep to the pouch, and the skin closed with sterile surgical staples. Animals were recovered under heat lamps until sternally recumbent, then individually housed for 14 days in an AAALAC accredited facility (water and food ad libitum; 12/12 hour light cycle).
# After 14 days the animals were euthanized in a CO2 chamber and the discs were removed. […] Cellular penetration into the discs was quantified using a digital imaging system (Imaging Research Inc., St. Catharines, Ontario, Canada). The total area of the disc was calculated, as was the area containing stained cells. […]
# Results. Following staining with toludine blue or Factor VIII, neovascularization was quantitated by densitometry.
# [5] = tested on: human endothelial cells; assay: Proliferation and migration of human endothelial cells; assay type: cell-based
# Sequence of c-Met (P08581 308-1390 limits assumed): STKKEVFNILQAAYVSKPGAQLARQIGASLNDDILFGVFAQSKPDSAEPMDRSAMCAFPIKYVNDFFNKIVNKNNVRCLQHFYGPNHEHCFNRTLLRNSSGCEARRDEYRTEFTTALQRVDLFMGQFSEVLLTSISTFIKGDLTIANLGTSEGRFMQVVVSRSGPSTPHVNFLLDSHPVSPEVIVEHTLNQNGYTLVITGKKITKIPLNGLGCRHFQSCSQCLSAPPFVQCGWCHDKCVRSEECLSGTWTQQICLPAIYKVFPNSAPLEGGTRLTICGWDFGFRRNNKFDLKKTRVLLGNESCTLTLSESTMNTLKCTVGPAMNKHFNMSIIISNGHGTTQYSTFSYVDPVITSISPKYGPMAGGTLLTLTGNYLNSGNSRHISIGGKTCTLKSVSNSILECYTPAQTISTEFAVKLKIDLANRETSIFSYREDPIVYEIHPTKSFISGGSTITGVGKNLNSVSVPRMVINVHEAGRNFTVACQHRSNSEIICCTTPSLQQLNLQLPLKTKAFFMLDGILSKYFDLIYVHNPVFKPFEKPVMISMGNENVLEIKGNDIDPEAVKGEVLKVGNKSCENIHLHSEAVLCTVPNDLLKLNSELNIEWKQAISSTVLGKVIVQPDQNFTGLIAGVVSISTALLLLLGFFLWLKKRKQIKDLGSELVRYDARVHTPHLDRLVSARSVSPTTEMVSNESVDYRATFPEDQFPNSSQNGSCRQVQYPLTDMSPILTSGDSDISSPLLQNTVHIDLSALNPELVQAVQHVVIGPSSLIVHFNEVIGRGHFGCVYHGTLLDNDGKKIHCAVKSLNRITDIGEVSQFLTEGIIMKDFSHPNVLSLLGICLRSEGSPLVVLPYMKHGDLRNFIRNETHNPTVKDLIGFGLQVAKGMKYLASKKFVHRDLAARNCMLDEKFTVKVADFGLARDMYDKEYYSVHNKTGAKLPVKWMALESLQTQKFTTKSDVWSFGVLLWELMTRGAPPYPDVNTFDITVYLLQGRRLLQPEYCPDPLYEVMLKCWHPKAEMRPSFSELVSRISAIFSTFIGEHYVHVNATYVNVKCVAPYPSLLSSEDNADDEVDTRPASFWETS
# Sequence of c-Met (P08581 25-307 limits assumed): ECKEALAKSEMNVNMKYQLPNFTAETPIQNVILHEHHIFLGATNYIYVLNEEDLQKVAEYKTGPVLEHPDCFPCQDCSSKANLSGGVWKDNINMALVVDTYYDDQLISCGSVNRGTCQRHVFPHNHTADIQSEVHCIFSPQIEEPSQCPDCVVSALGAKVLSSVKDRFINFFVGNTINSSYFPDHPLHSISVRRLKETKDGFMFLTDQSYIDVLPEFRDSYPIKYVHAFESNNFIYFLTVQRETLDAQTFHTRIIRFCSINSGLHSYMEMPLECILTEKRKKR
Substance,Effect on 125I-COMPOUND 2 binding to HEK cells [1],Competition for 125I-Norleual specific binding to HEK293 cell membranes [2],Concentration at which c-Met auto-phosphorylation saturates [3] [pM],Effect on angiogenesis in disc assay versus SGC discs [4],Proliferation and migration of human endothelial cells [5]
"HGF: Hepatocyte growth factor (SEQ ID NO:83), purchased from R&D systems; native ligand of the c-Met receptor",blocked,competed,550,,
Nle-Tyr-Ile-6(amino) hexanoic acid amide [Compound 4],,,,antagonist activity,
Nle-Tyr-Ile-His ([Nle]YIH) [Compound 3],,,,antagonist activity,
Nle-Tyr-Ile-His-Pro-Phe ([Nle]YIHPF) [Compound 1],,,,lone AT4 receptor agonist,augmented
